Data: ChEMBL document CHEMBL5291721, “A preclinical secondary pharmacology resource illuminates target-adverse drug reaction associations of marketed drugs” (Nat Commun, 2023)

Assays:
[1] = biological target: T1, Prostaglandin G/H synthase 1 (Rattus norvegicus, UniProt Q63921); type: functional
T1 sequence (Q63921 whole entry): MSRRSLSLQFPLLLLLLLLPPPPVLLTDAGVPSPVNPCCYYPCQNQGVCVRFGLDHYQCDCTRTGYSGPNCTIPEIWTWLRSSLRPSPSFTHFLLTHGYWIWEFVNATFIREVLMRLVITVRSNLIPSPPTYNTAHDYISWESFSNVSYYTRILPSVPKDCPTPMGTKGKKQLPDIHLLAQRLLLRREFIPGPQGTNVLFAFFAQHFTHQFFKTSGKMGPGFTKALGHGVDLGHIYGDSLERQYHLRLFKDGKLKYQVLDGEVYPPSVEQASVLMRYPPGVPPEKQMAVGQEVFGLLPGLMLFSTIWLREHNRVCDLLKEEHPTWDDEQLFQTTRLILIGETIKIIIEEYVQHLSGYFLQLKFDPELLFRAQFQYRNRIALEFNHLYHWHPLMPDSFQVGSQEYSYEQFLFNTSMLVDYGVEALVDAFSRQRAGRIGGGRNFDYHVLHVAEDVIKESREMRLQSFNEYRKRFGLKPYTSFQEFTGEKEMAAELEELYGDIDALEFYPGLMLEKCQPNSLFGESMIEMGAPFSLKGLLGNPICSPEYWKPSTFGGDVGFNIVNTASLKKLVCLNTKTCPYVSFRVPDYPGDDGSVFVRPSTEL

Histamine H3 receptor = Histamine H3 receptor (Homo sapiens, UniProt Q9Y5N1)
Histamine H3 receptor, sequence (Q9Y5N1 whole entry): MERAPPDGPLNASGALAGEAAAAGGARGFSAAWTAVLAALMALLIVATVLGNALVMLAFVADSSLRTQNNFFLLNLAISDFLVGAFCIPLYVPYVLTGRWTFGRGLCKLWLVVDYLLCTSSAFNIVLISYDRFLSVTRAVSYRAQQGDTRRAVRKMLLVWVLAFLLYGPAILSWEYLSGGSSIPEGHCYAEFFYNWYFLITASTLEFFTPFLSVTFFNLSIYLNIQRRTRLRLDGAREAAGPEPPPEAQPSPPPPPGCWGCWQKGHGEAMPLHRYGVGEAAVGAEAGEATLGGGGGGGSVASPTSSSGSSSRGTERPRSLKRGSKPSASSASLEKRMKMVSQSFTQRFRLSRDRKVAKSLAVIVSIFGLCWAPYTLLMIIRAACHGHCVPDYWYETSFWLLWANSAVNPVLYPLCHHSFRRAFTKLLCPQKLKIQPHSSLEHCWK

[2] = biological target: T2, Alpha-2A adrenergic receptor (Homo sapiens, UniProt P08913); type: functional, cell-based
T2 sequence (P08913 whole entry): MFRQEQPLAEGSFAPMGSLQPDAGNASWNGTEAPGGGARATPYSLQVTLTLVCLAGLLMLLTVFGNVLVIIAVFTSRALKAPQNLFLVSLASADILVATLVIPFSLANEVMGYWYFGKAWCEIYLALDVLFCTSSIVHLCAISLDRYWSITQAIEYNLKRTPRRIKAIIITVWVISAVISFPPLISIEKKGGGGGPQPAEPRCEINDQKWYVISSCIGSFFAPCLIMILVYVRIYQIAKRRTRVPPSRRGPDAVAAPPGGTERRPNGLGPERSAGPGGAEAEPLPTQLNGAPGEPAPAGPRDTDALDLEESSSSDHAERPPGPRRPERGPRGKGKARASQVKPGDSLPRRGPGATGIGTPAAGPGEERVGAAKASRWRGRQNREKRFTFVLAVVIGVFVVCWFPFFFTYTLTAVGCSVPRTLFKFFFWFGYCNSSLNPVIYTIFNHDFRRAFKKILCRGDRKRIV

[3] = biological target: Growth hormone secretagogue receptor type 1 (Homo sapiens, UniProt Q92847)
Growth hormone secretagogue receptor type 1, sequence (Q92847 whole entry): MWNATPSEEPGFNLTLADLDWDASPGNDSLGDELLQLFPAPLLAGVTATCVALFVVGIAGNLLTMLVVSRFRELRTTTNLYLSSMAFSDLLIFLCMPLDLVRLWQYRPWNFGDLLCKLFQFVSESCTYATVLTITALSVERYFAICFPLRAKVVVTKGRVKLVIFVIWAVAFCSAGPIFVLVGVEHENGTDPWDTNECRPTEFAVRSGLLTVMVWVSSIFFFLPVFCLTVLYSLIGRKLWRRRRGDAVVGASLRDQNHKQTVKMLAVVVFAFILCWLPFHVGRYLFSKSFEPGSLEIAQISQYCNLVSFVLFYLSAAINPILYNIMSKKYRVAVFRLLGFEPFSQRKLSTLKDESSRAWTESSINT

Histamine H1 receptor = Histamine H1 receptor (Homo sapiens, UniProt P35367)
Histamine H1 receptor, sequence (P35367 whole entry): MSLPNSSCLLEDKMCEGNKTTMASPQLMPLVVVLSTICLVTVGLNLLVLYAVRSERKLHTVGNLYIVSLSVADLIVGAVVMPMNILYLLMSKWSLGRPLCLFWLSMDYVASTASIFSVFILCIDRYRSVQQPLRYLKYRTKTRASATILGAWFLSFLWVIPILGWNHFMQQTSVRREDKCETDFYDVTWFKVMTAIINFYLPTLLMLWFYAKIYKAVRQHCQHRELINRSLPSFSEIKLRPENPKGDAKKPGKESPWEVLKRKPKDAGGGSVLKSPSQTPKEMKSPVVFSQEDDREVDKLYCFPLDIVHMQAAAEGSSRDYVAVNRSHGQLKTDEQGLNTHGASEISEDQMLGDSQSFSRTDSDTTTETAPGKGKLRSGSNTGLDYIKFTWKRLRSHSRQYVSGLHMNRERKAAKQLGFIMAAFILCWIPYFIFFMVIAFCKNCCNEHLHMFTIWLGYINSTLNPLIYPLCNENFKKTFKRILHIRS

[4] = biological target: T3, 5-hydroxytryptamine receptor 2C (Homo sapiens, UniProt P28335)
T3 sequence (P28335 whole entry): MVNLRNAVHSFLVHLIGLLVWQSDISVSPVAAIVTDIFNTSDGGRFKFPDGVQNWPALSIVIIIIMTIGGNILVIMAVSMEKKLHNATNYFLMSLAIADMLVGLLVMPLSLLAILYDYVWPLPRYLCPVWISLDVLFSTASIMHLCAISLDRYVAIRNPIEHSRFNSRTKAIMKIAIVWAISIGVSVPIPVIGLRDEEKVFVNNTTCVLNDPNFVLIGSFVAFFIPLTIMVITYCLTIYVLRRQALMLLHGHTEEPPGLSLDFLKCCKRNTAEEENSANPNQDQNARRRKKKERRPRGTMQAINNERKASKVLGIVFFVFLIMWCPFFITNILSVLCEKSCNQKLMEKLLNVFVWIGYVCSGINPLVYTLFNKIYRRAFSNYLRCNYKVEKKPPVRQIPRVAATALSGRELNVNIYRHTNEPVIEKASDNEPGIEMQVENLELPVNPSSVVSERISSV

[5] = biological target: T4, Gamma-aminobutyric acid receptor subunit alpha-1 (Rattus norvegicus, UniProt P62813); type: functional
T4 sequence (P62813 whole entry): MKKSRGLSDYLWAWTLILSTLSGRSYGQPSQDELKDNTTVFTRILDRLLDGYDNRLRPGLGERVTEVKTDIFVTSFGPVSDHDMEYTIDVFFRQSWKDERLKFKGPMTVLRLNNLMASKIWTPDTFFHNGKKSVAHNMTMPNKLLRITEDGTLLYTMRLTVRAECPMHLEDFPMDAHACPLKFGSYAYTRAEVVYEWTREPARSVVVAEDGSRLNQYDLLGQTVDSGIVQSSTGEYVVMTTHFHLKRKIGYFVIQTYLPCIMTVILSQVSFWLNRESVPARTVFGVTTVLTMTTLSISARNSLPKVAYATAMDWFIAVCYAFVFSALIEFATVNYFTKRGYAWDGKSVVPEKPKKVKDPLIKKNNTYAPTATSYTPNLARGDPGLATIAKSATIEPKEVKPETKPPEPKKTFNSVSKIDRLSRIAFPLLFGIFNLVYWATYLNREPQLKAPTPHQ

Melanocortin receptor 3 = Melanocortin receptor 3 (Homo sapiens, UniProt P41968)
Melanocortin receptor 3, sequence (P41968 whole entry): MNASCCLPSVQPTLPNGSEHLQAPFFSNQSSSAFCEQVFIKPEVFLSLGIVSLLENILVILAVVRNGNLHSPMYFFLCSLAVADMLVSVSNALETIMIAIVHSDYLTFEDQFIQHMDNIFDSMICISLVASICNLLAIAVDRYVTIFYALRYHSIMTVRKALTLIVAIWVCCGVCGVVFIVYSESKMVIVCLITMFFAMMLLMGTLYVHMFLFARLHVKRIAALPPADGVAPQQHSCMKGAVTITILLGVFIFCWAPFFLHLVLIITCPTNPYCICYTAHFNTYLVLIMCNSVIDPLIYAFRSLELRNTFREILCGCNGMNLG

[6] = biological target: T4, Gamma-aminobutyric acid receptor subunit alpha-1
[7] = biological target: 5-hydroxytryptamine receptor 2A (Homo sapiens, UniProt P28223); type: functional, cell-based
5-hydroxytryptamine receptor 2A, sequence (P28223 whole entry): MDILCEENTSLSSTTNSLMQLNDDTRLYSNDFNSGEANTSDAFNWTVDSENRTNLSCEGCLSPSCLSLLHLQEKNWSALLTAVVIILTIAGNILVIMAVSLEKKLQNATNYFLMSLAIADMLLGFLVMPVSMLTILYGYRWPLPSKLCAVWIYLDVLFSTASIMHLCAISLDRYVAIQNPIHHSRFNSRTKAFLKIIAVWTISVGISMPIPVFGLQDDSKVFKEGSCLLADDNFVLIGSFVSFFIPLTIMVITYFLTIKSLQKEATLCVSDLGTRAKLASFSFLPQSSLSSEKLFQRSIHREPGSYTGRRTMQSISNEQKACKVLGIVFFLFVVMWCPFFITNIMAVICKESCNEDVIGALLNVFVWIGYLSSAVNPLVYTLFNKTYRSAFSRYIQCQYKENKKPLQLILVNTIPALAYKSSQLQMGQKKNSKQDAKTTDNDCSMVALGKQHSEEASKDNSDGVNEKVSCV

Progesterone receptor = biological target: T5, Progesterone receptor (Homo sapiens, UniProt P06401); type: functional
T5 sequence (P06401 whole entry): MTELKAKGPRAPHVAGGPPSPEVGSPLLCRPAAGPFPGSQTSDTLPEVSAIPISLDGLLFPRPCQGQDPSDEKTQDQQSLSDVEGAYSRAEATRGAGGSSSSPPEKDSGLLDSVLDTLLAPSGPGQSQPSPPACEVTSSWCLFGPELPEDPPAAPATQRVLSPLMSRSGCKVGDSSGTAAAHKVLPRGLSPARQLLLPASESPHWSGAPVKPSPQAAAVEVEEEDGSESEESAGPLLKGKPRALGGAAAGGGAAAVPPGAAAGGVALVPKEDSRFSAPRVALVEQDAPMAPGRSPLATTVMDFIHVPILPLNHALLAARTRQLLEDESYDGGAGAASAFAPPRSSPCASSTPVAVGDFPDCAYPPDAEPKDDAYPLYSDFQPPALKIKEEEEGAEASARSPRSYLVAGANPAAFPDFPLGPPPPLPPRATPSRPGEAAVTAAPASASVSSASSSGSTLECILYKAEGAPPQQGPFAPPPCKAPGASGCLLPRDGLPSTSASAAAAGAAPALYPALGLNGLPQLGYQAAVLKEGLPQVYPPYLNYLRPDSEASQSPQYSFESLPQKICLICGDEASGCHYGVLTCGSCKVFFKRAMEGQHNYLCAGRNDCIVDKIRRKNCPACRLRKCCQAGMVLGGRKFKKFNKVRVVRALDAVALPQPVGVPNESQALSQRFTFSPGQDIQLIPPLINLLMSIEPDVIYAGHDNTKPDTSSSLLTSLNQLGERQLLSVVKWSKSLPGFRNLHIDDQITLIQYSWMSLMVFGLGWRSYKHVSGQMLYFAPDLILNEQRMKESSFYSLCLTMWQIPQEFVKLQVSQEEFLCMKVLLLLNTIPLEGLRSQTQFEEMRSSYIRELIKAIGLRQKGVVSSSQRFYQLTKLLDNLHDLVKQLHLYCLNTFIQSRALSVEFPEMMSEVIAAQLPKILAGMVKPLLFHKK
Further: assay procedure not described here.

Row | Compound | AC50 [1] [µM] | AC50 (Histamine H3 receptor) [µM] | AC50 [2] [µM] | AC50 [3] [µM] | AC50 (Histamine H1 receptor) [µM] | AC50 [4] [µM] | AC50 [5] [µM] | AC50 (Melanocortin receptor 3) [µM] | AC50 [6] [µM] | AC50 [7] [µM] | AC50 (Progesterone receptor) [µM]
1 | O=C1CN=C(c2ccccc2)c2cc(Cl)ccc2N1 [NORDAZEPAM] | > 30 | > 10 | > 10 | > 30 | > 10 | > 30 | 0.049 | > 30 | > 10 |  | 
2 | CC(CCc1ccccc1)NC(C)C(O)c1ccc(O)cc1 (configuration not stated) [NYLIDRIN] | > 30 | > 10 | > 10 | > 30 | > 10 | > 30 | > 10 | > 30 | > 10 | > 30 | 
3 | O=C1Nc2ccc(Cl)cc2C(c2ccccc2)=NC1O (configuration not stated) [OXAZEPAM] | > 30 | > 10 | > 10 | > 30 | > 10 | > 30 | 0.03 | > 30 | > 10 | > 30 | 
4 | CC(=O)c1ccc2c(c1)N(CCCN1CCC(CCO)CC1)c1ccccc1S2 [PIPERACETAZINE] | > 30 | > 30 | > 30 | > 30 | 0.034 | 11 | > 30 | > 30 | > 30 | 0.3 | 
5 | Cc1cc2nc3c(=O)[nH]c(=O)nc-3n(C[C@H](O)[C@H](O)[C@H](O)COP(=O)(O)O)c2cc1C [RIBOFLAVIN 5'-PHOSPHATE] | 0.9 | > 30 |  | > 30 | > 30 | 24 | > 30 | > 30 | > 30 |  | 
6 | CC(C)(C)NC[C@H](O)COc1nsnc1N1CCOCC1 [TIMOLOL] | > 30 | > 30 | > 30 | > 30 |  | > 30 | > 30 | > 30 | > 30 |  | > 30
7 | COc1cc2c(Nc3ccc(Br)cc3F)ncnc2cc1OCC1CCN(C)CC1 [VANDETANIB] | > 30 | 2.1 | > 30 | 26 |  | > 30 | > 30 | > 30 | > 30 | 14 | > 10
8 | N#C[C@@H]1CCCN1C(=O)CNC12CC3CC(CC(O)(C3)C1)C2 [VILDAGLIPTIN] | > 30 | > 10 | > 30 | > 30 | > 30 | > 30 | > 30 | > 30 | > 30 | > 30 | 
9 | COLISTIN |  |  | > 30 |  | > 30 | > 30 | > 30 |  | > 30 | > 30 | 
